Laboratory results: US8426174B2, “Method for the production of 2-butanol” (Butamax(TM) Advanced Biofuels LLC, priority 2007, dated 2013)
Read-outs that look alike come from different tables or passages of the source.

Legend:
E. coli strain MG1655 = system: E. coli strain MG1655
Method: A similar study was done with log-phase cultures of E. coli grown in a defined medium. E. coli strain MG1655 was allowed to grow overnight in MOPS 0.2% glucose medium (Teknova, Half Moon Bay, Calif.) at 42° C. or 28° C. The following day, the cultures were diluted into fresh medium and allowed to grow at the same temperature until in the log phase of growth. […] To these were added 10 μL of the log phase cultures and the tubes were immediately placed in shaking incubators at 42° C. or 28° C. or left on ice for 30 min. […] Then 5 μL of the undiluted treated cultures were spotted on LB agar plates. Subsequent 10-fold serial dilutions of 10^−3, 10^−4, 10^−5 and 10^−6 of the exposed cultures were done by serial pipetting of 20 μL, starting with the 10^−2 dilution cultures, into 180 μL of LB medium in the microplate, using a multi-channel pipette. Prior to each transfer, the cultures were mixed by pipetting up and down six times. Each dilution (5 μL) was spotted onto an LB plate using a multi-channel pipette and allowed to soak into the plate. The plates were inverted and incubated overnight at 37° C. […] Survival of 0% was recorded when no colonies in the spots of the undiluted or any of the serial dilutions were observed.

L. plantarum PN0512 = conditions: for % Survival at 37° C. / % Survival at 23° C. / % Survival at 0° C. / concentration at which L. plantarum PN0512 cells were killed: one hour
Method: (§1) Using overnight cultures or cells from plates, 30 mL cultures of the microorganisms to be tested were started in the following culture media: • E. coli—Miller's LB medium (Teknova, Half Moon Bay, Calif.): • L. plantarum PN0512—Lactobacilli MRS Broth (BD Diagnostic Systems, Sparks, Md.). The E. coli and L. plantarum cultures were grown at 37° C. aerobically with shaking until the cultures were in log phase and the OD600 was between 0.6 and 0.8. A 50 μL aliquot of each culture was removed for a time zero sample. The remainder of the cultures was divided into six 5 mL portions and placed in six small incubation flasks or tubes. […] The flasks or tubes were incubated at a desired temperature, aerobically without shaking for 1 h. After the incubation with one of the butanols, 2 μL from each of the flasks (and in addition 2 μL of the time zero sample of the culture before exposure to one of the butanols) were pipetted into the “head” wells of a 96 well (8×12) microtiter plate, each containing 198 μL of LB medium to give a 10^−2 dilution of the culture. Subsequently, 10^−3, 10^−4, 10^−5, and 10^−6 serial dilutions of the cultures were prepared as follows. The 10^−3 dilution was prepared by pipetting 20 μL of the sample from the head well into the 180 μL LB medium in the next well using a multi-channel pipette. This procedure was repeated 3 more times on successive wells to prepare the 10^−4, 10^−5, and 10^−6 dilutions. After each liquid transfer, the solution in the well was mixed by pipetting it up and down 10 times with the multi-channel pipetor. A 5 μL aliquot of each dilution was spotted onto an LB plate using a multi-channel pipette starting with the 10^−6 dilution, then the 10^−5, and so on working from more to less dilute without a change of tips. The spots were allowed to soak into the agar by leaving the lid of the plate slightly open for 15 to 30 min in a sterile transfer hood. The plates were covered, inverted, and incubated overnight at 37° C. The following day, the number of colonies in the spots were counted from the different dilutions. The number of living cells/mL in each of the original culture solutions from which the 2 μL was withdrawn was calculated and compared to the number of cells in the control untreated culture to determine the % of the cells surviving.

E. coli (strain MG1655) = conditions: for % Survival at 30° C. / % Survival at 37° C. / % Survival at 0° C.: 1 h; for concentration at which E. coli cells were killed: one hour
Method: as §1

[1] = 1.5 % (w/v) 1-butanol, grown at 28° C.
[2] = 1.5 % (w/v) 1-butanol, grown at 42° C.
[3] = 2.0 % (w/v) 1-butanol, grown at 28° C.
[4] = 2.0 % (w/v) 1-butanol, grown at 42° C.
[5] = 3.0 % (w/v) 1-butanol, grown at 28° C.
[6] = 3.0 % (w/v) 1-butanol, grown at 42° C.
[7] = 4.0 % (w/v) 1-butanol, grown at 28° C.
[8] = 4.0 % (w/v) 1-butanol, grown at 42° C.
[9] = […] (w/v) 1-butanol, grown at 42° C.

Substance: 1-butanol
- % survival after 30 min exposure at 42° C. (E. coli strain MG1655; 1.0 % (w/v) 1-butanol, grown at 28° C.): 100%
- % survival after 30 min exposure at 42° C. (E. coli strain MG1655; 1.0 % (w/v) 1-butanol, grown at 42° C.): 100%
- % survival after 30 min exposure at 28° C. (E. coli strain MG1655; [1]): 100%
- % survival after 30 min exposure at 42° C. (E. coli strain MG1655; [1]): 0%
- % survival after 30 min exposure at 28° C. (E. coli strain MG1655; [2]): 100%
- % survival after 30 min exposure at 42° C. (E. coli strain MG1655; [2]): 0%
- % survival after 30 min exposure at 28° C. (E. coli strain MG1655; [3]): 100%
- % survival after 30 min exposure at 42° C. (E. coli strain MG1655; [3]): 0%
- % survival after 30 min exposure at 28° C. (E. coli strain MG1655; [4]): 100%
- % survival after 30 min exposure at 42° C. (E. coli strain MG1655; [4]): 0%
- % survival after 30 min exposure at 28° C. (E. coli strain MG1655; [5]): 0%
- % survival after 30 min exposure at 42° C. (E. coli strain MG1655; [5]): 0%
- % survival after 30 min exposure at 0° C. (E. coli strain MG1655; 3.0 % (w/v) 1-butanol, grown at 29° C.): 100%
- % survival after 30 min exposure at 0° C. (E. coli strain MG1655; [6]): 100%
- % survival after 30 min exposure at 28° C. (E. coli strain MG1655; [6]): 0%
- % survival after 30 min exposure at 42° C. (E. coli strain MG1655; [6]): 0%
- % survival after 30 min exposure at 28° C. (E. coli strain MG1655; [7]): 0%
- % survival after 30 min exposure at 42° C. (E. coli strain MG1655; [7]): 0%
- % survival after 30 min exposure at 0° C. (E. coli strain MG1655; 4.0 % (w/v) 1-butanol, grown at 29° C.): 100%
- % survival after 30 min exposure at 0° C. (E. coli strain MG1655; [8]): 100%
- % survival after 30 min exposure at 28° C. (E. coli strain MG1655; [8]): 0.001%
- % survival after 30 min exposure at 42° C. (E. coli strain MG1655; [8]): 0%
- % survival after 30 min exposure at 0° C. (E. coli strain MG1655; 5.0 % (w/v) 1-butanol, grown at 29° C.): 50%
- % survival after 30 min exposure at 0° C. (E. coli strain MG1655; 5.0 % (w/v) 1-butanol, grown at 42° C.): 10%
- % survival after 30 min exposure at 0° C. (E. coli strain MG1655; 6.0 % (w/v) 1-butanol, grown at 29° C.): 1%
- % survival after 30 min exposure at 0° C. (E. coli strain MG1655; 6.0 % (w/v) 1-butanol, grown at 42° C.): 1%
- % survival after 30 min exposure at 42° C. (E. coli strain MG1655; […] (w/v) 1-butanol, grown at 28° C.): 0%
- % survival after 30 min exposure at 0° C. (E. coli strain MG1655; […] (w/v) 1-butanol, grown at 29° C.): 100%
- % survival after 30 min exposure at 0° C. (E. coli strain MG1655; [9]): 100%
- % survival after 30 min exposure at 42° C. (E. coli strain MG1655; [9]): 0%
- concentration with no toxic effect on L. plantarum PN0512 cells (L. plantarum PN0512; 0° C., one hour treatment): ≤ 4.5 % v/v
- % Survival at 37° C. (L. plantarum PN0512; 1 % v/v 1-butanol): 80%
- % Survival at 37° C. (L. plantarum PN0512; 1.5 % v/v 1-butanol): 58%
- % Survival at 23° C. (L. plantarum PN0512; 2 % v/v 1-butanol): 100%
- % Survival at 37° C. (L. plantarum PN0512; 2 % v/v 1-butanol): 29%
- % Survival at 0° C. (L. plantarum PN0512; 3 % v/v 1-butanol): 100%
- % Survival at 23° C. (L. plantarum PN0512; 3 % v/v 1-butanol): 82%
- % Survival at 37° C. (L. plantarum PN0512; 3 % v/v 1-butanol): 0%
- % Survival at 0° C. (L. plantarum PN0512; 4 % v/v 1-butanol): 100%
- % Survival at 23° C. (L. plantarum PN0512; 4 % v/v 1-butanol): 0%
- % Survival at 0° C. (L. plantarum PN0512; 5 % v/v 1-butanol): 0%
- % Survival at 0° C. (L. plantarum PN0512; 5.5 % v/v 1-butanol): 0%
- concentration at which L. plantarum PN0512 cells were killed (L. plantarum PN0512; 23° C.): 3.5 % v/v
- concentration at which L. plantarum PN0512 cells were killed (L. plantarum PN0512; 37° C.): 2.5 % v/v
- % Survival at 0° C. (L. plantarum PN0512; […] v/v 1-butanol): 100%
- concentration with no toxic effect on E. coli cells (E. coli (strain MG1655); 0° C., one hour treatment): ≤ 4.5 % v/v
- % Survival at 30° C. (E. coli (strain MG1655); 1 % v/v 1-butanol): 100%
- % Survival at 37° C. (E. coli (strain MG1655); 1 % v/v 1-butanol): 72%
- % Survival at 30° C. (E. coli (strain MG1655); 1.5 % v/v 1-butanol): 100%
- % Survival at 37° C. (E. coli (strain MG1655); 1.5 % v/v 1-butanol): 20%
- % Survival at 30° C. (E. coli (strain MG1655); 2 % v/v 1-butanol): 100%
- % Survival at 37° C. (E. coli (strain MG1655); 2 % v/v 1-butanol): 0%
- % Survival at 0° C. (E. coli (strain MG1655); 3 % v/v 1-butanol): 100%
- % Survival at 30° C. (E. coli (strain MG1655); 3 % v/v 1-butanol): 0%
- % Survival at 37° C. (E. coli (strain MG1655); 3 % v/v 1-butanol): 0%
- % Survival at 0° C. (E. coli (strain MG1655); 4 % v/v 1-butanol): 100%
- concentration at which E. coli cells were killed (E. coli (strain MG1655); 30° C.): 3 % v/v
- concentration at which E. coli cells were killed (E. coli (strain MG1655); 37° C.): 2 % v/v
- % Survival at 0° C. (E. coli (strain MG1655); […] v/v 1-butanol): 100%
- % Survival at 37° C. (E. coli (strain MG1655); […] v/v 1-butanol): 0%
